Results on 53 compounds are retold here after PubChem BioAssay AID179 (DTP/NCI, 2004).

For this experiment, the system named is CEM cells HIV-1 protection, formazan growth assay. Description: NCI AIDS Antiviral Assay. The conditions noted are these: for IC50: measured here: growth of uninfected CEM cells. In outline: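 Protection of CEM cells against HIV-1 measured as cell growth via soluble formazan read-out, with five concentrations tested on both infected and uninfected cells; failure to protect may reflect toxicity.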

The structures appear in SMILES notation. Active and inactive are the calls of the source.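 How the source made its calls: active means compounds giving half or more protection of infected cells from virus-caused growth loss, again on retest; inactive means the rest.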

On to `CC1(CCc2ccccc2)CC1(Br)Br` (centres undefined), for which the EC50 is greater than 200 µM and the concentration for half-maximal inhibition (IC50) amounted to 95.5 µM.
For `CCOC(=O)c1nc(SC)sc1NC(=O)c1ccccc1N` the same measures were greater than 200 µM and greater than 200 µM.
For `N#C/C(=C\c1c(Cl)cccc1Cl)c1nc(-c2ccc(Cl)cc2)cs1` the same measures were greater than 200 µM and 72.4 µM.
For `O=c1ccc2cc3ccoc3c(OCCOCCOCCOCCOc3c4occc4cc4ccc(=O)oc34)c2o1` the same measures were greater than 79.4 µM and 10.7 µM.
With `O=P(OCC1CCCO1)(OCC1CCCO1)OCC1CCCO1` (centres undefined), the outcome was inactive.
For the compound `CCOC(=O)c1cn2c(nc1=O)N[C@H]1CCCC[C@@H]12`, the EC50 was greater than 200 µM and the IC50 was greater than 200 µM.
`O=C(/C=C/c1cccs1)c1ccc(Cl)s1`: the result was inactive.
Regarding `O=C(c1cccc([N+](=O)[O-])c1)c1c(O)c2ccccc2oc1=O`, the EC50 is greater than 200 µM and the IC50 amounted to 95.5 µM.
In the case of `CC(NC(CC12CC3CC(CC(C3)C1)C2)C(N)=O)c1ccccc1` (centres undefined), the EC50 is greater than 200 µM and the IC50 was 34.7 µM.
For `CN(C)CCCNc1c2ccccc2nc2cccc([N+](=O)[O-])c12` the same measures were greater than 0.2 µM and 0.000407 µM.
For `O=S(c1ccccc1)c1ccccc1` the same measures were greater than 447 µM and 389 µM.
For `COC(=O)c1ccccc1CC1Cc2cc3c(cc2C1)CCC3` the same measures were greater than 200 µM and 38 µM.
Take `c1ccc(-c2nc3nc4ccccc4nc3nc2-c2ccccn2)nc1`: the EC50 is greater than 53.7 µM and the IC50 is 10.7 µM.
Regarding `CCN(CC)CC.CCOc1ccc(NC(=O)N=C=[N-])cc1.[CH-]1CCCCC1.[CH-]1CCCCC1.[CH-]1CCCCC1.[Cl-].[Sn+4]`, the outcome was inactive.
The same measure, in the same setting: for `CC1=NN(C(=O)c2ccccc2O)C(=O)C1N=Nc1ccccc1C(=O)O` (centres undefined) the value was “inactive”.
With `C=CCc1cc2c(C)cc(=O)oc2c(C)c1OC(C)=O`, the EC50 was greater than 19.1 µM and the IC50 was greater than 19.1 µM.
On to `N#Cc1c2c(c(N=[N+]=[N-])n3c1nc1ccccc13)CCCC2`, for which the EC50 was greater than 4.68 µM and the IC50 was greater than 4.68 µM.
As for `CC(C)(C)[Si](C)(C)OCC1OC(n2ccc(=O)[nH]c2=O)/C(=C\C#N)C1O[Si](C)(C)C(C)(C)C` (centres undefined), the EC50 was greater than 200 µM and the concentration for half-maximal inhibition (IC50) is 35.5 µM.
For the compound `COc1ccc2nc3cc([N+](=O)[O-])ccc3c(Nc3ccc(S(=O)(=O)Nc4ncccn4)cc3)c2c1`, the EC50 is greater than 200 µM and the IC50 worked out at 102 µM.
For `N#CC1=C2Oc3ccccc3N2C(c2ccccc2)C(C#N)=C1N` (centres undefined) the same measures were greater than 200 µM and greater than 200 µM.
The matching figures for `CCOc1csc([C@H]2CCC3[C@@H]4CC=C5C[C@@H](OC(C)=O)CC[C@]5(C)C4CC[C@@]32C)n1` (some centres undefined): greater than 56.2 µM and greater than 56.2 µM.
For `O=c1cc(-c2ccccc2)oc2c(-c3cc(Cl)cc4c(=O)cc(-c5ccccc5)oc34)cc(Cl)cc12` the same measures were greater than 200 µM and 38.9 µM.
On to `COc1cc2c(cc1OC)C1OC(c3cc(OC)c(OC)cc3C1OC(C)=O)C2OC(C)=O` (centres undefined), for which the EC50 was greater than 50.1 µM and the IC50 was greater than 50.1 µM.
With `Cc1ccc(CCC(=O)C(=O)O)s1`, the EC50 was greater than 479 µM and the IC50 is greater than 479 µM.
In the case of `O=C1NC(=O)/C(=C\c2ccccc2)C2=C1CCCC2`, the EC50 is greater than 74.1 µM and the IC50 is 15.5 µM.
For `O=C1NC2(CN3CCC2CC3)C(=O)N1CN(Cc1ccccc1)c1ccccc1` (centres undefined) the same measures were greater than 200 µM and 91.2 µM.
The matching figures for `C/C(=N\NC(N)=S)c1sc(-n2nc(-c3ccccc3)cc2-c2ccccc2)nc1C`: greater than 16.6 µM and greater than 16.6 µM.
For `CC1(Cl)CC(O)C2(CC1Br)C1(C)OC1C1OC1(Br)C2(C)C` (centres undefined) the same measures were greater than 200 µM and 15.1 µM.
In the case of `O=C(O)/C=C\CCCCCCCCC(=O)O`, the EC50 was greater than 794 µM and the 50% inhibitory concentration (IC50) was greater than 794 µM.
For the compound `COC1(OC)CCCCC2c3cccc(OC(C)=O)c3C21OC(C)=O` (centres undefined), the EC50 was 72.4 µM and the IC50 was 214 µM.
For `CC(=O)Oc1ccc2cc(Oc3cc(Cl)c(Cl)cc3Cl)c(=O)oc2c1` the same measures were greater than 200 µM and 93.3 µM.
The matching figures for `Oc1ccccc1/C=N/N=C/c1ccccc1O`: greater than 200 µM and greater than 200 µM.
For `O=C1NC(=O)C(=Cc2ccccc2Cl)C(=O)N1` the same measures were greater than 269 µM and 2.63 µM.
Turning to `C=C(C)C12CC3CC(/C(=N/O)C(C1)/C3=N\O)[C@@]2(C)O` (some centres undefined), the EC50 was greater than 355 µM and the IC50 is greater than 355 µM.
For the compound `CC(=O)OCC1OC(n2c(-c3ccc(C)cc3)cc(-c3ccccc3)c(C#N)c2=S)C(OC(C)=O)C(OC(C)=O)C1OC(C)=O` (centres undefined), the EC50 was greater than 200 µM and the IC50 came out at 67.6 µM.
As to `Cc1cc(C)c(C2=NO[C@@H]3C(=O)N(c4ccc(Cc5ccc(N6C(=O)[C@H]7C(c8c(C)cc(C)cc8C)=NO[C@H]7C6=O)cc5)cc4)C(=O)[C@H]23)c(C)c1`, the EC50 is greater than 7.59 µM and the IC50 is greater than 7.59 µM.
For `Nc1nc(Cl)cc(NCCCCCCNc2cc(Cl)nc(N)n2)n1`, the outcome was inactive.
With `S=c1[nH]nc(Nc2ccc(Cl)cc2)s1`, the EC50 is greater than 200 µM and the IC50 was found to be 79.4 µM.
For `COc1ccc2c(c1)CC1Cc3ccccc3CCN1C2` (centres undefined) the same measures were greater than 200 µM and 39.8 µM.
For `CN1C(=O)[C@@H]2[C@@H]3c4ccccc4N(S(=O)(=O)C(F)(F)F)[C@@H]3c3[nH]c4ccccc4c3[C@@H]2C1=O`, the EC50 is greater than 200 µM and the IC50 was 9.33 µM.
The matching figures for `N#C/C(=C/c1ccc(Cl)cc1)c1ccc(Cl)cc1`: greater than 200 µM and 195 µM.
As to `Cc1ccc(C)c(NC(=O)CC/C(=N\NC(=O)C(=O)NN)C(C)C(=O)c2ccc(O)cc2)c1` (centres undefined), the result was inactive.
For the compound `CCOC(=O)c1nc2ccc(C(F)(F)F)cc2[nH]c1=O`, the EC50 is greater than 200 µM and the half-inhibitory concentration (IC50) was greater than 200 µM.
As to `CCOC(=O)c1c(C)c2c(n1C)CCc1cn[nH]c1-2`, the EC50 was greater than 191 µM and the IC50 turned out to be 126 µM.
For `O=C(CCc1nnc2s/c(=C\c3ccccc3Cl)c(=O)n12)Nc1cc(Cl)ccc1Cl` the same measures were greater than 525 µM and greater than 525 µM.
The matching figures for `CCSC(CCC(NC(C)=O)C(=O)O)SCC` (centres undefined): greater than 200 µM and greater than 200 µM.
For `CC(C)n1cc(C(C)(C)C)nc1SSc1nc(C(C)(C)C)cn1C(C)C` the same measures were greater than 200 µM and greater than 200 µM.
Regarding `CCOC(=O)/C(C#N)=C1\N[C@H](C(=O)OCC)CO1`, the EC50 was greater than 977 µM and the IC50 was greater than 977 µM.
In the case of `O/N=C(/Cc1ccccc1)CC(O)(C(F)(F)F)C(F)(F)F`, the EC50 is greater than 200 µM and the IC50 was 70.8 µM.
The matching figures for `C=C=C(C)C(C(C)C)N1CCCC1` (centres undefined): greater than 1230 µM and 138 µM.
As for `CCCCCCCCCCCCCCCCCC(=O)NCC(COP(=O)([O-])OCC[N+](C)(C)C)OCC` (centres undefined), the result was inactive.
As to `CCCCCCCCOCC(CO)OCCCCCCCC` (centres undefined), the EC50 is greater than 251 µM and the IC50 came to 132 µM.
In the case of `CCOC(=O)N(NC(=O)NC(C)C)c1ccccc1`, the EC50 is greater than 200 µM and the IC50 is greater than 200 µM.
